Assay results as given in patent publication EP4741392A1, “1H-PYRAZOLO[4,3-C]PYRIDINE COMPOUND, AND COMPOSITION THEREOF AND USE THEREOF” (Shenzhen TargetRx Co., Ltd., priority 2023, dated 2025).

How the values were obtained:
Type in all cases: cell-based
Ramos cells with BTK WT = assay: Phosphor-BTK(Y223) assay, suspended cells; conditions: Homo sapiens, Ramos, phosphorylated BTK Y223, Ramos cells with BTK WT
Method: (§1) The purpose of this assay was to simply, quickly and directly detect the level of endogenous BTK phosphorylation in cells.
The steps for handling suspended cells were as follows: • 1) Ramos cells with BTK WT (2.5 k/well), BTK C481S (2.5 k/well), or BTK T474I (2.5 k/well) were plated in a 96-well plate, respectively. A compound of different concentration gradients was added using Tecan D300e, and the plate was incubated at 37 °C and 5% CO2 for 2 hours. • 2) 8.33 µL of 20 mM Na3VO4 was added to bring the final concentration to 5 mM, and the plate was incubated at 37 °C and 5% CO2 for 3 h. • 3) During the incubation, the following reagents were prepared: • 4x added lysis buffer: 24 vol 4x lysis buffer + 1 vol 25x blocking reagent. • p-BTK (Y223) cryptate-antibody and p-BTK (Y223) d2-antibody working solutions: 1 volume of each cryopreserved antibody (stored at - 20 °C) was added to 38 times the volume of assay buffer (stored at 4 °C), and mixed well. • 4) After the incubation was completed, 11.1 µL of 4x added lysis buffer was directly added. The plate was shaken at 800 rpm at room temperature for 30 min. • 5) The lysate was mixed well and 16 µL of it was transferred to a 384-well plate. 1 × added lysis buffer was used as a blank control. • 6) 4 µL of pre-mixed working solutions of the two antibodies (cryptate Ab:d2 Ab = 1:1) was added, and the plate was sealed. • 7) The plate was incubated at room temperature overnight. • 8) The plate was read at 665nm and 620nm using Biotek cytation3.0 microplate reader, and the ratio of 665/620nm of each well was calculated. Data analysis: IC50 was calculated using GraphPad Prism 7.0 software.
(§2) The IC50 (half-maximal phosphorylation inhibitory concentration) of the phosphorylated BTK Y223 of the compound was obtained using the following nonlinear fitting formula: Y = Bottom + (Top−Bottom)/(1+10^(∧)((LogIC50−X)*HillSlope)) [formula] • X: Log value of the compound concentration • Y: Inhibition rate (% inhibition) • Top: Maximum response • Bottom: Baseline response • HillSlope: Slope of the curve
(§3) The formula for calculating cell phosphorylation inhibition rate (inhibition rate %) was: Inhibition rate% = 1−(eachconcentrationwell-blankwell)/(positivecontrolwell−blankwell) [formula]

NIH/3T3 BTK C481S cells = assay: Phosphor-BTK(Y223) assay, adherent cells; conditions: Mus musculus, NIH3T3, phosphorylated BTK Y223, NIH/3T3 BTK C481S cells; read-out: NIH/3T3 BTK-C481S pBTK
Method: as §1
(§4) The steps for handling adherent cells were as follows: • 1) NIH/3T3 BTK WT cells (7.5 k/well) and NIH/3T3 BTK C481S cells (10 k/well) were plated in a 96-well plate, respectively, and cultured at 37 °C and 5% CO2 overnight. • 2) A 3-fold final concentration gradient dilution of a compound was prepared, and 50 µL of it was taken and added to 100 µL of cell culture. 0.5% DMSO was used as a positive control for cell growth. • 3) The plate was incubated at 37 °C and 5% CO2 for 0.5 h. • 4) Na3VO4 at a final concentration of 1mM was added, and the plate was incubated at 37 °C and 5% CO2 for 2 hours. • 5) During the incubation, the following reagents were prepared: • 1x added lysis buffer: 3 vol ddH2O + 1 vol 4x lysis buffer + 100x blocking reagent. • p-BTK (Y223) cryptate-antibody and p-BTK (Y223) d2-antibody working solutions: 1 volume of each cryopreserved antibody (stored at - 20 °C) was added to 19 times the volume of assay buffer (stored at 4 °C). • 6) After the incubation was completed, the medium was removed and 50 µL of 1x added lysis buffer was added. The plate was centrifuged at 500 rpm at room temperature for 30 min. • 7) The lysate was mixed well and 16 µL of it was transferred to a 384-well plate. 1 × added lysis buffer was used as a blank control. • 8) 4 µL of pre-mixed working solutions of the two antibodies (cryptate Ab:d2 Ab = 1:1) was added, and the plate was sealed. • 9) The plate was incubated at room temperature overnight. 10) The plate was read at 665nm and 620nm using Biotek cytation3.0 microplate reader, and the ratio of 665/620nm of each well was calculated.
as §2, §3

NIH/3T3 BTK WT cells = assay: Phosphor-BTK(Y223) assay, adherent cells; conditions: Mus musculus, NIH3T3, phosphorylated BTK Y223, NIH/3T3 BTK WT cells; read-out: NIH/3T3 BTK-WT pBTK
Method: as §1, §4, §2, §3

| Structure (SMILES) | IC50 (Ramos cells with BTK WT) | IC50 (NIH/3T3 BTK C481S cells) | IC50 (NIH/3T3 BTK WT cells) |
| --- | --- | --- | --- |
| COc1ccc(F)cc1C(=O)NCc1ccc(-c2nc(C(C)C(F)(F)F)c(-c3cnccn3)c3[nH]nc(N)c23)cc1 (centres unmarked) [Example 8, N-(4-(3-amino-7-(pyrazin-2-yl)-6-(1,1,1-trifluoropropan-2-yl)-1H-pyrazolo[4,3-c]pyridin-4-yl)benzyl)-5-fluoro-2-methoxybenzamide] | > 50 nM | > 50 nM | > 50 nM |
| COc1ccc(F)cc1C(=O)NCc1ccc(-c2nc(C(C)C(F)(F)F)c(-c3ccc(C(F)(F)F)cn3)c3[nH]nc(N)c23)cc1 (centres unmarked) [Example 12, N-(4-(3-amino-7-(5-(trifluoromethyl)pyridin-2-yl)-6-(1,1,1-trifluoropropan-2-yl)-1H-pyrazolo[4,3-c]pyridin-4-yl)benzyl)-5-fluoro-2-methoxybenzamide] | > 50 nM | > 50 nM | > 50 nM |
| COc1ccc(F)cc1C(=O)NCc1ccc(-c2ncc(-c3cncnc3)c3[nH]nc(N)c23)cc1 [Example 16, N-(4-(3-amino-7-(pyrimidin-5-yl)-1H-pyrazolo[4,3-c]pyridin-4-yl)benzyl)-5-fluoro-2-methoxybenzamide] | > 50 nM | > 50 nM | > 50 nM |
| COc1ccc(F)cc1C(=O)NCc1ccc(-c2ncc(-c3cnn4ccccc34)c3[nH]nc(N)c23)cc1 [Example 33, N-(4-(3-amino-7-(pyrazolo[1,5-a]pyridin-3-yl)-1H-pyrazolo[4,3-c]pyridin-4-yl)benzyl)-5-fluoro-2-methoxybenzamide] | > 50 nM | > 50 nM | > 50 nM |
| COc1ccc(F)cc1C(=O)NCc1ccc(-c2ncc(-c3cnc4ccnn4c3)c3[nH]nc(N)c23)cc1 [Example 34, N-(4-(3-amino-7-(pyrazolo[1,5-a]pyrimidin-6-yl)-1H-pyrazolo[4,3-c]pyridin-4-yl)benzyl)-5-fluoro-2-methoxybenzamide] | > 50 nM | > 50 nM | > 50 nM |
| COc1ccc(F)cc1C(=O)NCc1ccc(-c2ncc(-c3cnc4ccccn34)c3[nH]nc(N)c23)cc1 [Example 55, N-(4-(3-amino-7-(imidazo[1,2-a]pyridin-3-yl)-1H-pyrazolo[4,3-c]pyridin-4-yl)benzyl)-5-fluoro-2-methoxybenzamide] | > 50 nM | > 50 nM | > 50 nM |
| COc1ccc(F)cc1C(=O)NCc1ccc(-c2ncc(-c3cnc4ncccn34)c3[nH]nc(N)c23)cc1 [Example 63, N-(4-(3-amino-7-(imidazo[1,2-a]pyrimidin-3-yl)-1H-pyrazolo[4,3-c]pyridin-4-yl)benzyl)-5-fluoro-2-methoxybenzamide] | > 50 nM | > 50 nM | > 50 nM |
| COc1ccc(F)cc1C(=O)NCc1ccc(-c2ncc(-c3cnc4cnccn34)c3[nH]nc(N)c23)cc1 [Example 64, N-(4-(3-amino-7-(imidazo[1,2-a]pyrazin-3-yl)-1H-pyrazolo[4,3-c]pyridin-4-yl)benzyl)-5-fluoro-2-methoxybenzamide] | > 50 nM | > 50 nM | > 50 nM |
| COc1ccc(F)cc1C(=O)NCc1ccc(-c2ncc(C(=O)NC3CC3)c3[nH]nc(N)c23)cc1 [Example 81, 3-amino-N-cyclopropyl-4-(4-((5-fluoro-2-methoxybenzoylamino)methyl)phenyl)-1H-pyrazolo[4,3-c]pyridine-7-carboxamide] | > 50 nM | > 50 nM | > 50 nM |
| COc1ccc(F)cc1C(=O)NCc1ccc(-c2cc(C(C)C(F)(F)F)cc3[nH]nc(N)c23)cc1 (centres unmarked) [Example 86, N-(4-(3-amino-6-(1,1,1-trifluoropropan-2-yl)-1H-indazol-4-yl)benzyl)-5-fluoro-2-methoxybenzamide] | – | > 50 nM | > 50 nM |

Continued, in another order:

| IC50 (Ramos cells with BTK WT) | Structure (SMILES) | IC50 (NIH/3T3 BTK C481S cells) | IC50 (NIH/3T3 BTK WT cells) |
| --- | --- | --- | --- |
| > 50 nM | COc1ccc(F)cc1C(=O)NCc1ccc(-c2nc(C(C)C(F)(F)F)c(Br)c3[nH]nc(N)c23)cc1 (centres unmarked) [Example 4, N-(4-(3-amino-7-bromo-6-(1,1,1-trifluoropropan-2-yl)-1H-pyrazolo[4,3-c]pyridin-4-yl)benzyl)-5-fluoro-2-methoxybenzamide] | > 50 nM | > 50 nM |
| > 50 nM | COc1ccc(F)cc1C(=O)NCc1ccc(-c2nc(C(C)C(F)(F)F)c(-c3ccccn3)c3[nH]nc(N)c23)cc1 (centres unmarked) [Example 5, N-(4-(3-amino-7-(pyridin-2-yl)-6-(1,1,1-trifluoropropan-2-yl)-1H-pyrazolo[4,3-c]pyridin-4-yl)benzyl)-5-fluoro-2-methoxybenzamide] | > 50 nM | > 50 nM |
| > 50 nM | COc1ccc(F)cc1C(=O)NCc1ccc(-c2nc(C(C)C(F)(F)F)c(-c3cncnc3)c3[nH]nc(N)c23)cc1 (centres unmarked) [Example 10, N-(4-(3-amino-7-(pyrimidin-5-yl)-6-(1,1,1-trifluoropropan-2-yl)-1H-pyrazolo[4,3-c]pyridin-4-yl)benzyl)-5-fluoro-2-methoxybenzamide] | > 50 nM | > 50 nM |
| > 50 nM | COc1ccc(F)cc1C(=O)NCc1ccc(-c2nc(C(C)C(F)(F)F)c(-c3ccnnc3)c3[nH]nc(N)c23)cc1 (centres unmarked) [Example 11, N-(4-(3-amino-7-(pyridazin-4-yl)-6-(1,1,1-trifluoropropan-2-yl)-1H-pyrazolo[4,3-c]pyridin-4-yl)benzyl)-5-fluoro-2-methoxybenzamide] | > 50 nM | > 50 nM |
| > 50 nM | COc1ccc(F)cc1C(=O)NCc1ccc(-c2nc(C(C)C(F)(F)F)c(-c3ccc(F)cn3)c3[nH]nc(N)c23)cc1 (centres unmarked) [Example 13, N-(4-(3-amino-7-(5-fluoropyridin-2-yl)-6-(1,1,1-trifluoropropan-2-yl)-1H-pyrazolo[4,3-c]pyridin-4-yl)benzyl)-5-fluoro-2-methoxybenzamide] | > 50 nM | > 50 nM |
| > 50 nM | COc1ccc(F)cc1C(=O)NCc1ccc(-c2nc(C(C)C(F)(F)F)c(-c3ccccc3)c3[nH]nc(N)c23)cc1 (centres unmarked) [Example 14, N-(4-(3-amino-7-phenyl-6-(1,1,1-trifluoropropan-2-yl)-1H-pyrazolo[4,3-c]pyridin-4-yl)benzyl)-5-fluoro-2-methoxybenzamide] | > 50 nM | > 50 nM |
| > 50 nM | COc1ccc(F)cc1C(=O)NCc1ccc(-c2ncc(-c3ccnnc3)c3[nH]nc(N)c23)cc1 [Example 20, N-(4-(3-amino-7-(pyridazin-4-yl)-1H-pyrazolo[4,3-c]pyridin-4-yl)benzyl)-5-fluoro-2-methoxybenzamide] | > 50 nM | > 50 nM |
| > 50 nM | COc1ccc(F)cc1C(=O)NCc1ccc(-c2ncc(-c3ccnn3C)c3[nH]nc(N)c23)cc1 [Example 32, N-(4-(3-amino-7-(1-methyl-1H-pyrazol-5-yl)-1H-pyrazolo[4,3-c]pyridin-4-yl)benzyl)-5-fluoro-2-methoxybenzamide] | > 50 nM | > 50 nM |
| 10 to 50 nM | COc1ccc(F)cc1C(=O)NCc1ccc(-c2ncc(-c3cccnn3)c3[nH]nc(N)c23)cc1 [Example 40, N-(4-(3-amino-7-(pyridazin-3-yl)-1H-pyrazolo[4,3-c]pyridin-4-yl)benzyl)-5-fluoro-2-methoxybenzamide] | > 50 nM | 10 to 50 nM |
